{"source": "patent US20070042020A1", "about": "“Composition for the treatment of dysfunctional energy metabolism syndrome” (priority 2003, published 2007)", "test_system": "old Labrador Retriever dog that had difficulty in standing and walking", "assay": "Exercise ability (walking distance) of a dog under cofactor supplementation", "format": "in vivo", "experimental": "When L-carnitine, acetyl-L-carnitine, with added pantothenate at 0.4 mg/kg body weight were supplemented for one week, exercise ability increased to 2740 yards and, by three weeks, ability was 3807 yards. However, when pantothenate was eliminated for two weeks, exercise ability declined to 350 yards. Then when pantothenate was returned to the L-carnitine and acetyl-L-carnitine combination, his exercise capability returned to more than 3800 yards. This case illustrates the contribution of the various cofactors to physical activity."}
{"smiles": "CC(=O)O[C@H](CC(=O)[O-])C[N+](C)(C)C", "note": "[acetyl-L-carnitine]", "values": [{"measurement": "exercise ability (distance walked)", "setting": "after two weeks of acetyl-L-carnitine at 4 mg/kg body weight and no L-carnitine", "value": 648, "unit": "yards"}]}
{"smiles": "C[N+](C)(C)C[C@H](O)CC(=O)[O-]", "note": "[L-carnitine]", "values": [{"measurement": "distance it could walk", "setting": "after one week of L-carnitine at 5 mg/kg body weight, 340 yards before", "value": 1240, "unit": "yards"}]}
